Reference: patent publication US20240158359A1, “HYDROLYSIS-RESISTANT ESTERS FOR DRUG AND IMAGING AGENT DELIVERY” (The Board of Trustees of the University of lllinois, priority 2022, published 2024)

Assays:
A549 cells = assay: MTT assay using MTX-Me2 and MTX-(PhiPr)2; type: cell-based; settings: highest concentration (10 μM), 24 hours
Protocol: Next, we modified the two carboxylates in methotrexate (a potent anticancer and immunosuppressive drug) to afford the methyl (MTX-Me2) or Ph^iPr (MTX-(Ph^iPr)2) ester variants (FIG. 2b). A549 cells were cultured and treated with MTX-Me2 or MTX-(Ph^iPr)2 at various concentrations for 24 hours before they were subjected to MTT analyses. […] Statistical analysis for FIG. 3b, FIG. 3c and FIG. 3d was performed using a two-tailed t-test (α=0.05, **** P<0.001)
48-well plates were seeded with 30,000 A549 cells per well (500 μL of 60,000 cells/mL) and incubated at 37° C. with 5% CO2 for 24 hours. Media was removed and fresh serum-free RPMI 1640 containing […] of MTX-Me2 or MTX-(PriPr)2 were added (0.1% DMSO final v/v). The media was removed after 24 hours incubation and replaced with 500 μL of a 20:1 mixture of serum-free RPMI 1640 and (3-(4,5-dimethylthiazol2-yl)-2,5-diphenyl-tetrazolium bromide (MTT, 5 mg/mL stock in PBS). The cells were incubated for 2 hours under the same condition and then the medium was removed and replaced with DMSO (500 μL/well). The absorbance of each well was recorded at 555 nm on a microplate reader. Viability was calculated by the absorbance relative to the vehicle control.

[1] = Hydrolytic stability of BL660 esters in PBS, luciferase BL readout; type: physicochemical; settings: for rate of hydrolysis: 10 μM, PBS pH 7.4, 37° C., 1, 6 and 12 hours
Protocol: We began our analysis of stability by incubating BL660 esters of Compound (1), Compound (2), and Compound (3) at 37° C. in PBS (phosphate-buffered saline) (pH 7.4). After 1, 6, and 12 hours, luciferase was added (10mU, 37° C., pH 7.4) to initiate BL production. The rate of hydrolysis, reported as total luminescence counts per hour, indicates hydrolysis in descending order is: Compound (1) (13.9±1.4×10^3); Compound (2) (3.3±0.6×10^3), and Compound (3) (1.0±0.1×10^3) (FIG. 1b, wherein the esters are indicated on the horizontal axis) and FIG. 8 (wherein the respective timeline plots are identified beneath the horizontal axis as (1), (2), etc.). Luminescent counts were recorded using an IVIS In Vivo Imaging System. […] Without wishing to be bound by any theory, we speculate hydrolysis of (3) may involve an SN1 mechanism, thus favoring formation of a double benzylic carbocation.

porcine liver esterase = assay: Esterase reactivity: treatment with porcine liver esterase, BL readout; type: in vitro ADME; settings: 10 μM, porcine liver esterase 0.1 units/mL, 37° C., pH 7.4, 20, 40 and 60 minutes
Source text: The enzymatic rates, reported as total luminescence counts per minute, in descending order are: Compound (1) (31.0±6.8×10^2), (3) (9.5±1.2×10^2), and (2) (0.6±0.1×10^2) (FIG. 1c and FIG. 9). The greater stability imparted by the aromatic ring is not surprising since esterase reactivity can be readily attenuated with bulkier substituents.

4T1-Luc cells = assay: Ester stability in live 4T1-Luc cells, BL imaging; type: cell-based, murine; settings: 10 μM
Protocol: First, we prepared BL660-Me, a methyl ester derivative of BL660 as shown in FIG. 2a for comparison to the benzyl ester (4) of FIG. 1a. Next, we cultured 4T1 murine breast cancer cells, stably expressing the luciferase enzyme (4T1-Luc). The cells were then treated with a DMSO (dimethyl sulfoxide) vehicle control, BL660-Me or Compound (4) (FIG. 3a and FIG. 10a, b, c respectively?). Imaging was performed using the IVIS In Vivo Imaging System.
4T1-Luc cell was cultured in phenol red-free RPMI 1640 (ATCC) with 10% fetal bovine serum (FBS, Sigma Aldrich), and 1% penicillin/streptomycin (Corning).
Evaluation of BL660-Me and 4 in 4T1-Luc Cells. 4T1-Luc cells (180K) were seeded into 24-well plates and incubated for 24 hours. The cells were ˜85% confluent. The media was removed and replaced with serum-free RPMI 1640. An initial background scan was recorded on an IVIS imaging system in open mode where no filters were applied. Cells were then treated with DMSO (2.5 μL, 0.5%), BL660-Me, or compound 4 in DMSO (10 μM final concentration). After 30 minutes incubation at 37° C., bioluminescence was collected. ROIs were drawn around each well. The total luminescence count for each well for a given condition was averaged. The signal intensity was quantified using the Living Image Analysis Software.

Row | SMILES | viability (A549 cells) [%] | rate of hydrolysis [1] | enzymatic rate (porcine liver esterase) | also measured
1 | COC(=O)CCC(NC(=O)c1ccc(N(C)Cc2cnc3nc(N)nc(N)c3n2)cc1)C(=O)OC (stereo not drawn) [MTX-Me2, reference compound] | ~63 |  |  | 
2 | CC(C)C(OC(=O)CCC(NC(=O)c1ccc(N(C)Cc2cnc3nc(N)nc(N)c3n2)cc1)C(=O)OC(c1ccccc1)C(C)C)c1ccccc1 (mixture of isomers) [MTX-(Ph^iPr)2] | 100 |  |  | 
3 | CCN(CC)c1ccc(C=CC=CC2=NC(C(=O)OC(C)c3ccccc3)CS2)cc1 (stereo not drawn) [Compound (3)] |  | 1.0±0.1×10^3 total luminescence counts per hour | 9.5±1.2×10^2 total luminescence counts per minute | effectiveness at blocking hydrolysis, methyl substituent of (3) versus phenyl group of (2) ([1]; PBS pH 7.4, 37° C.): over three-fold more effective at blocking hydrolysis
4 | CCN(CC)c1ccc(C=CC=CC2=NC(C(=O)OC)CS2)cc1 (stereo not drawn) [BL660-Me] |  |  |  | luminescence relative to Compound (4) (4T1-Luc cells; 30 mins): 31 fold; luminescence relative to the vehicle (4T1-Luc cells; 30 mins): 55 fold; total luminescence count (4T1-Luc cells; 30 mins at 37° C.): 94.1±5.9×10^3 total luminescence count
5 | CCN(CC)c1ccc(C=CC=CC2=NC(C(=O)OCc3ccccc3)CS2)cc1 (stereo not drawn) [Compound (1)] |  | 13.9±1.4×10^3 total luminescence counts per hour | 31.0±6.8×10^2 total luminescence counts per minute | 
6 | CCN(CC)c1ccc(C=CC=CC2=NC(C(=O)OC(c3ccccc3)c3ccccc3)CS2)cc1 (stereo not drawn) [Compound (2)] |  | 3.3±0.6×10^3 total luminescence counts per hour | 0.6±0.1×10^2 total luminescence counts per minute | 
